Test system: immobilized GST-tagged bait protein domains
Assay: ProP-PD phage selections (HD2 P8, sublibraries, HD2 P3, HD1 P8) with NGS and confidence level
Type: binding, human
[1] = bait AP2B1_adaptin__P63010_700_937, library HD
[2] = bait AP2B1_adaptin__P63010_700_937, library HD, mean normalised NGS counts
[3] = bait AP2B1_adaptin__P63010_700_937, library HD, mean raw NGS counts, all selections
[4] = bait MAP1LC3B_ATG8 (Q9GZQ8 2-119), HD2 library, benchmark motif instance recovered in the ProP-PD selection (TRUE/FALSE)
[5] = library HD2, bait EPS15_EH__P42566_121_215, whether the validated benchmark motif instance was recovered in the ProP-PD selection (TRUE/FALSE)
[6] = HD2 library, bait SUMO1_SUMO__P63165_1_101, known motif instance of the benchmarking set found (TRUE) or not found (FALSE) among selected peptides
[7] = bait KPNA4_Arm (O00629 68-487), HD2 library, benchmark motif instance recovered in the ProP-PD selection (TRUE/FALSE)
[8] = library HD2, bait YES1_SH3__P07947_90_152, validated benchmark motif instance, in_library_check TRUE, TRUE/FALSE = instance recovered in ProP-PD selection
[9] = bait ANKRA2_Ank__Q9H9E1_142_313, HD2 P8 selection, confidence level -4 to 4: 4 = High, 3 or 2 = Medium, 1 = Low, 0 = Filtered/Noise
[10] = bait MDM2_p53-binding-domain (Q00987 17-125), HD2 library, benchmark motif instance recovered in the ProP-PD selection (TRUE/FALSE)
[11] = library HD2, bait VASP_EVH1__P50552_1_114, validated benchmark motif instance, in_library_check TRUE, TRUE/FALSE = instance recovered in ProP-PD selection
[12] = bait PEX14_Pex14__O75381_16_84, HD2 library, whether the validated benchmark motif instance was recovered in the ProP-PD selection (TRUE/FALSE)
[13] = bait PABP-B_PABP__P11940_544_623, HD2 library, whether the validated benchmark motif instance was recovered in the ProP-PD selection (TRUE/FALSE)
[14] = bait AP2B1_adaptin__P63010_700_937, library HD2, benchmarking set of validated motif instances, TRUE = motif instance recovered in the ProP-PD selection
[15] = library HD2, bait Keap1_KELCH__Q14145_321_609, whether the validated benchmark motif instance was recovered in the ProP-PD selection (TRUE/FALSE)
[16] = bait MAP1LC3A_ATG8 (Q9H492 2-121), HD2 library, benchmark motif instance recovered in the ProP-PD selection (TRUE/FALSE)
[17] = bait MDM2_p53-binding-domain (Q00987 17-125), HD2 library, confidence level (1-4) of best matching peptide
[18] = bait MDM2_p53-binding-domain (Q00987 17-125), HD2 library, specificity score of best matching peptide
[19] = HD2 library, bait CALM1_EF-hand__P0DP23_2_149, benchmark motif instance, in_library_check FALSE, in_library_coverage 0

DVDYFGQQFDQISNRT
HD confidence [1]: 2
HD count proportions [2]: 0.1904
HD mean counts [3]: 883.25

DWSNLVDAAKAYEVQR
HD2-1mM_CaCl confidence (bait CALM1 EF-hand (P0DP23, 2-149), HD2 library selection with 1mM_CaCl, confidence level (4 = High, 2 or 3 = Medium, 1 = Low)): 2
HD2 confidence (bait CALM1 EF-hand (P0DP23, 2-149), HD2 library selection, confidence level (4 = High, 2 or 3 = Medium, 1 = Low)): 3

DYDQSRTKVLHMSLNPTSVARQR
motif_found (bait MAD2L1_HORMA (Q13257 1-205), HD2 library, benchmark motif instance recovered in the ProP-PD selection (TRUE/FALSE)): FALSE

DYESDDDSYEVLDLTEY
motif_found [4]: FALSE

DYFDYESTNPFTAKFRASN
motif_found [5]: FALSE

EASKKKVDVIDLTIESSSDE
motif_found [6]: FALSE

EATNTTSEPSAPSQDLLDLS
motif_found (HD2 library, bait TSG101_UEV__Q99816_1_145, known motif instance of the benchmarking set found (TRUE) or not found (FALSE) among selected peptides): FALSE

ECISSAMPKKKKPSRLKGDNE
motif_found [7]: FALSE

EDSPLLEDWDIISPKDVIG [TBC1D25 135-139]
motif_found (HD2 library, bait MAP1LC3A_ATG8__Q9H492_2_121, benchmark motif instance, in_library_check FALSE, in_library_coverage 0): FALSE
motif_found (HD2 library, bait MAP1LC3B_ATG8__Q9GZQ8_2_119, benchmark motif instance, in_library_check FALSE, in_library_coverage 0): FALSE

EEARKSPTPSAPVPLTEPAA
motif_found (library HD2, bait TSG101_UEV__Q99816_1_145, validated benchmark motif instance, in_library_check TRUE, TRUE/FALSE = instance recovered in ProP-PD selection): FALSE

EEDQILKKPLPPEPAAAPVST
motif_found [8]: FALSE

EEEEAVAGNPFIQPDSPAP
motif_found [5]: FALSE

EEEELDESNPFYEPKSTPP
motif_found [5]: FALSE

EEEMEVPVLPKISLPI
HD2 confidence [9]: 2

EETFQLSRWTPFIKDI
HD confidence [1]: 3
HD count proportions [2]: 0.004596
HD mean counts [3]: 9.0

EFLSPEVFQHIWDFLEQPICSV
motif_found [10]: FALSE

EGALGGAFPPPPPPIEESF
motif_found [11]: FALSE

EGTATDRWYDEYHPEEDLQ
motif_found [12]: FALSE

EKPVPTLPQFTMGPNV
HD2 confidence [9]: 3

ELDKEIKNSFNPEAQVFMPISDPASSV
motif_found [13]: FALSE

ELDTNDDDIVFEDFARQRLKGMKDD,DDDIVFEDFARQRL [ARRB1]
motif_found [14]: FALSE

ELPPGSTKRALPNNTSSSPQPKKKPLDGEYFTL
motif_found [7]: FALSE

ELSMFQLPTLNFSPEQ
confidence (library HD, bait ANKRA2_Ank__Q9H9E1_142_313, ProP-PD peptides with disease-related mutations): 3

EPCGQRDSPPDYHLLF
p3_HD2 confidence (bait NEDD4_WW_4_P46934_890_928, HD2 P3 library, confidence level (4 = High, 2-3 = Medium, 1 = Low)): 4
p3_HD2 mean counts (bait NEDD4_WW_4_P46934_890_928, HD2 P3 library, mean NGS counts over replicate selections): 3356
p3_HD2 count proportions (bait NEDD4_WW_4_P46934_890_928, HD2 P3 library, mean proportion of NGS counts): 0.1373

EPSKPAATRKRRWSAPESRK
motif_found [7]: FALSE

EPSTTPNNWADFSSTW
HD confidence [1]: 3
HD2 confidence (bait AP2B1_adaptin__P63010_700_937, library HD2 P8): 4
HD2_endomembrane confidence (bait AP2B1_adaptin__P63010_700_937, library HD2 P8 endomembrane): 4
HD count proportions [2]: 0.0006275
HD mean counts [3]: 1.5

EQVASKGTGLNPNAKVWQEIAPGNTDA
motif_found [13]: FALSE

ERSGVIREVMIIEVSSSEEE
motif_found [6]: FALSE

ESAKAADDPENGERESHTPV
motif_found [15]: FALSE

ESEDYSQPSTSSSIIYSSQ
motif_found (library HD2, bait USP7_MATH-TRAF__Q93009_53_206, validated benchmark motif instance, in_library_check TRUE, TRUE/FALSE = instance recovered in ProP-PD selection): FALSE

ESFGGGFADFSTLSKV
best_specificity (bait AP2B1_adaptin__P63010_700_937, library HD2, best matching peptide): 1
best_confidence (bait AP2B1_adaptin__P63010_700_937, library HD2, confidence level of best matching peptide (4 = High, 2 or 3 = Medium, 1 = Low)): 3

ESGSLEDDWDFLPPKKIKD
motif_found [16]: FALSE
motif_found [4]: FALSE

ESSNLCMPDLPHLLAF
HD2 confidence (bait ANKRA2_Ank__Q9H9E1_142_313, library HD2 P8): 4

ETPGDGKPPALPPKQS
p3_HD2 confidence (bait CRK_SH3_1_P46108_124_198, HD2 P3 library, confidence level (4 = High, 2-3 = Medium, 1 = Low)): 3
p3_HD2 mean counts (bait CRK_SH3_1_P46108_124_198, HD2 P3 library, mean NGS counts over replicate selections): 437.0
p3_HD2 count proportions (bait CRK_SH3_1_P46108_124_198, HD2 P3 library, mean proportion of NGS counts): 0.01474

ETRICKIYDSPCLPEAEAMFA
motif_found [8]: FALSE

FADFSTLSKVNNEDPF
HD confidence [1]: 3
HD count proportions [2]: 0.0005532
HD mean counts [3]: 1.25

FASKPPTTNPFL-------
motif_found [5]: FALSE

FASQEKFFQELFDSELASQ
motif_found [12]: FALSE

FATLPRKKNPFEESSETWD
motif_found [5]: FALSE

FDIDMDAPETERAAVAIQSQFRKFQKKKAGSQS,DMDAPETERAAVAIQSQFRKFQKKKAGSQS---- [PCP4]
motif_found (bait CALM1_EF-hand__P0DP23_2_149, library HD2, benchmarking set of validated motif instances, TRUE = motif instance recovered in the ProP-PD selection): FALSE

FEAQWAALEGKATVEK
motif_found [10]: TRUE
best_confidence [17]: 3
best_specificity [18]: 1

FEAQWAALENKSKQRT
motif_found [10]: TRUE
best_confidence [17]: 3
best_specificity [18]: 0.97

FFAQLQLDEETGEFLPIQPA
motif_found [15]: FALSE

FGPPPQVPSRPNRAPPGVPS [DNM1]
motif_found (bait CRK_SH3_1_P46108_124_198, library HD2, benchmarking set of validated motif instances, TRUE = motif instance recovered in the ProP-PD selection): FALSE

FITGLTRTNPFSDRTAAPG
motif_found [5]: FALSE

FLGNGNELEWEDDTPVATAKNMPG
motif_found (library HD2, bait KLC1_TPR__Q07866_203_497, whether the validated benchmark motif instance was recovered in the ProP-PD selection (TRUE/FALSE)): FALSE

FLKLKNAATLIQRHWRGHNCRKNYGLMRLGF [MYO7A 771-787]
motif_found [19]: FALSE

FPTDERSWVYSPLHYS
HD confidence (bait TLN1_PTB__Q9Y490_309_401, library HD): 3
p3_HD2 confidence (bait TLN1_PTB__Q9Y490_309_401, library HD2 P3): 2
p3_HD2 count proportions (bait TLN1_PTB__Q9Y490_309_401, library HD2 P3, mean normalised NGS counts): 0.001295
p3_HD2 mean counts (bait TLN1_PTB__Q9Y490_309_401, library HD2 P3, mean raw NGS counts, all selections): 12.2
HD2 confidence (bait TLN1_PTB__Q9Y490_309_401, library HD2 P8): 4
HD2_nc confidence (bait TLN1_PTB__Q9Y490_309_401, library HD2 P8 nucleocytoplasmic): 3
HD2_nc count proportions (bait TLN1_PTB__Q9Y490_309_401, library HD2 P8 nucleocytoplasmic, mean normalised NGS counts): 0.1307
HD2_nc mean counts (bait TLN1_PTB__Q9Y490_309_401, library HD2 P8 nucleocytoplasmic, mean raw NGS counts, all selections): 5802.8
HD count proportions (bait TLN1_PTB__Q9Y490_309_401, library HD, mean normalised NGS counts): 0.08207
HD mean counts (bait TLN1_PTB__Q9Y490_309_401, library HD, mean raw NGS counts, all selections): 2181

FPTGSSSTNPFL-------
motif_found [5]: FALSE

FRHRLWAVLTVQAYARGMIARRLHQRLRAEY [MYO7A 840-856]
motif_found [19]: FALSE

FRPENEEDILVVTTQGEVE
motif_found [16]: FALSE
motif_found [4]: FALSE

GAQASVGSRSEGEGEAASADDG
motif_found (HD2 library, bait TNKS_TANK-peptide-bind__O95271_174_649, known motif instance of the benchmarking set found (TRUE) or not found (FALSE) among selected peptides): FALSE

GCMKTCPLIDLEVDNGPAQ [GGA2]
motif_found (bait CLTC_Clathrin-propeller__Q00610_1_364, library HD2, benchmarking set of validated motif instances, TRUE = motif instance recovered in the ProP-PD selection): FALSE

GDSQGRKRRQTSMTDFYHSKRRLIFSKRKP-
motif_found [7]: FALSE

GEAWGHSSRTSPLDNV
HD2_nucleus confidence (bait WDR5_WD_1234567_P61964_21_334, library HD2 P8 nucleus): 4

GEYVRVKLQLNPAAREFKPDVKSKPVS
motif_found [13]: FALSE

GGFDTEPDEFSDFDRLRTALPTSG [EPN1]
motif_found [14]: FALSE

GGMNWADLLPPPPAHP
best_confidence (library HD2, bait VASP_EVH1__P50552_1_114, confidence level of best matching selected peptide (4 High, 2-3 Medium, 1 Low)): 3
best_specificity (library HD2, bait VASP_EVH1__P50552_1_114, specificity score of best matching selected peptide): 0.99
motif_found [11]: TRUE

GHPESPPRKRLKSKGSDKDF
motif_found [7]: FALSE

From paper PMC8769072, “Proteome‐scale mapping of binding sites in the unstructured regions of the human proteome” (Molecular Systems Biology, 2022)
